Assay results taken from patent publication US20040186089A1 (priority 2001, published 2004).
≈ marks a conversion by molar mass, not a printed value. Where “and” joins values, the source holds several entries; their conditions need not be identical. Equal entries are not always repeated.

Assays:
Bacillus anthracis [1] = details: cited from earlier work
[2] = tested on: Bacillus anthracis ATCC 14578; type: cell-based; details: for MIC: unit assumed
Bacillus anthracis [3] = details: in vivo; cited from earlier work
Bacillus thuringiensis [4] = details: cited from earlier work
Bacillus cereus = type: cell-based
Bacillus thuringiensis [5] = type: cell-based

Row | Compound | susceptibility of Bacillus anthracis (Bacillus anthracis [1]) | MIC [2] | other results
1 | gentamicin | susceptible | – | –
2 | CN(C)[C@@H]1C(O)=C(C(N)=O)C(=O)[C@@]2(O)C(O)=C3C(=O)c4c(O)cccc4[C@@](C)(O)[C@H]3C[C@@H]12 [Tetracycline] | – | 0.064 µg/mL (≈ 0.144 µM) | –
3 | C[C@@H](O)[C@H]1C(=O)N2C(C(=O)O)=C(SCCN=CN)C[C@H]12 [Imipenem, [5R-[5α,6α(R*)]]-6-(1-hydroxyethyl)-3-[[2-[(iminomethyl)amino]ethyl]thio]-7-oxo-1-azabicyclo[3.2.0]hept-2-ene-2-carboxylic acid monohydrate] | – | 0.047 µg/mL | –
4 | O=C(O)c1cn(C2CC2)c2cc(N3CCNCC3)c(F)cc2c1=O [Ciprofloxacin] | – | 0.064 µg/mL (≈ 0.193 µM) | response of people (Bacillus anthracis [3]): responded well; resistance of Bacillus thuringiensis (Bacillus thuringiensis [4]): not resistant
5 | CC[C@H]1OC(=O)[C@H](C)[C@@H](O[C@H]2C[C@@](C)(OC)[C@@H](O)[C@H](C)O2)[C@H](C)[C@@H](O[C@@H]2O[C@H](C)C[C@H](N(C)C)[C@H]2O)[C@](C)(O)C[C@@H](C)C(=O)[C@H](C)[C@@H](O)[C@]1(C)O [erythromycin] | susceptible | – | –
6 | O=C(N[C@H](CO)[C@H](O)c1ccc([N+](=O)[O-])cc1)C(Cl)Cl [chloramphenicol] | susceptible | – | –
7 | Penicillin | susceptible | 0.047 µg/mL | resistance of Bacillus thuringiensis (Bacillus thuringiensis [4]): resistant
8 | CCn1cc(C(=O)O)c(=O)c2cc(F)c(N3CCNCC3)cc21 [Norfloxacin] | – | – | Disk Diffusion zone (Bacillus cereus): 22 mm and 23 mm and 21 mm and 25 mm; Disk Diffusion zone (Bacillus thuringiensis [5]): 27 mm and 24 mm
9 | CC1(C)S[C@@H]2[C@H](NC(=O)[C@H](N)c3ccccc3)C(=O)N2[C@H]1C(=O)O [ampicillin] | – | – | resistance of Bacillus thuringiensis (Bacillus thuringiensis [4]): resistant
10 | C[C@@H](O)[C@H]1C(=O)N2C(C(=O)O)=C(S[C@@H]3CN[C@H](C(=O)Nc4cccc(C(=O)O)c4)C3)[C@H](C)[C@H]12 [Ertapenem, (1R,5S,6S,8R,2′S,4′S)-2-(2-(3-carboxyphenylcarbamoyl)pyrrolidin-4-ylthio)-6-(1-hydroxyethyl)-1-methylcarbapenem-3-carboxylic acid] | – | 0.032 µg/mL (≈ 0.0673 µM) | susceptibility of Bacillus anthracis [2]: susceptible
11 | CO[C@@]1(NC(=O)Cc2cccs2)C(=O)N2C(C(=O)O)=C(COC(N)=O)CS[C@@H]21 [Cefoxitin] | – | 6 µg/mL (≈ 14 µM) | –
